Experimental data as given in paper PMC6965684, “Characterization of binding, functional activity, and contractile responses of the selective 5‐HT1F receptor agonist lasmiditan” (British Journal of Pharmacology, 2019).
Where a name gives a salt, the structure may show the parent alone. Read-outs that look alike come from different tables or passages of the source.

What was measured:
5-HT2B receptor [1] = target: T1, 5-HT2B receptor (Homo sapiens, UniProt P41595); experiment: cell-based; design: species or system CHO-K1; IPOne HTRF agonist assay, IP1 accumulation in adherent transfected cells
T1 construct: gene HTR2B; full-length human recombinant receptor in CHO-K1 cells (Ogeda); crude membranes
T1 sequence (P41595 whole entry): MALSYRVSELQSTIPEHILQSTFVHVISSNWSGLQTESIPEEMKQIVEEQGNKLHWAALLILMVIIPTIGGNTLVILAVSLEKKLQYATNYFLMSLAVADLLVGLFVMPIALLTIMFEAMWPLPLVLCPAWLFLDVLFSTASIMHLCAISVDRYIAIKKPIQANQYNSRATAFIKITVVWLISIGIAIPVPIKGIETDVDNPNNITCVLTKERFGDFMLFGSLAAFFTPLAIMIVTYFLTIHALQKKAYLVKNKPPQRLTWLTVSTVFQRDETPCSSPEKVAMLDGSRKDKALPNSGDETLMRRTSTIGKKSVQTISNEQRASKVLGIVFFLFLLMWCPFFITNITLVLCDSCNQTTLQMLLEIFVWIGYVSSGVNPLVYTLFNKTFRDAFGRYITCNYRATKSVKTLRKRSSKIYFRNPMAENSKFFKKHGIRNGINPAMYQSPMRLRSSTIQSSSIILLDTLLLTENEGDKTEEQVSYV
Experimental: The assay was performed on adherent cells. For agonist testing, the medium was removed and 20 μl of assay buffer plus 20 μl of the studied agonist or the reference agonist were added in each well. The plate was incubated for 60 min at 37°C with 5% CO2. IP1‐D2 reagent and anti‐IP1 cryptate reagents were dispensed in the wells, and IP1 concentrations were then measured following the manufacturer instructions (IPOne HTRF assay kit; Cisbio International, Codolet, France). In brief, increasing concentrations of agonists were added to stably transfected cells in buffer in an Optiplate (PerkinElmer Life Sciences). The plates were incubated, and cells were then lysed by the addition of HTRF reagents (IP1‐D2 reagent and anti‐IP1 cryptate reagents) and diluted in lysis buffer, followed by incubation at room temperature. […] Additionally, the reference values obtained were compared to historical values obtained from the same receptor and used to validate the experimental session. […] For the new assays developed in this study (i.e., 5‐ht1E receptor), the two independent pIC50 determined must be concordant with a 1 log unit interval for the assays to be validated.

5-HT2B receptor [2] = target: T1, 5-HT2B receptor; experiment: radioligand competition, CHO-K1 membranes; type: binding; details: for Ki: read-out: 5-HT2B / pKi (converted)
From the text: radioligand competition, CHO-K1 membranes on 5-HT2B receptor

5-HT2A receptor = target: T2, 5-HT2A receptor (Homo sapiens, UniProt P28223); experiment: radioligand competition, CHO-K1 membranes; type: binding; details: read-out: 5-HT2A / pKi (converted)
T2 construct: gene HTR2A; full-length human recombinant receptor in CHO-K1 cells (Ogeda); crude membranes
T2 sequence (P28223 whole entry): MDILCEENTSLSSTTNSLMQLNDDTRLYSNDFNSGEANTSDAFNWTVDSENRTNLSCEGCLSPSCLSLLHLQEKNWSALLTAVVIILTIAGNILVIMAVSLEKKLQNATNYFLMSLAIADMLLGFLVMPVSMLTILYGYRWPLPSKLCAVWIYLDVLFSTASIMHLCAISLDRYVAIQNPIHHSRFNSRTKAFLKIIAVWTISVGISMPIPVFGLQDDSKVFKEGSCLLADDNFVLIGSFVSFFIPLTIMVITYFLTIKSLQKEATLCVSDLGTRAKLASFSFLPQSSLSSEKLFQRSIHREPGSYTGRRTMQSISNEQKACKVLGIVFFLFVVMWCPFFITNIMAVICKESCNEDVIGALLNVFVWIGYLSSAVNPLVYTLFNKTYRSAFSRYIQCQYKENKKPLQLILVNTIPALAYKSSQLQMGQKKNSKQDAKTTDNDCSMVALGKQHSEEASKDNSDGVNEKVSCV
From the text: radioligand competition, CHO-K1 membranes on 5-HT2A receptor

5-ht1E receptor [3] = target: T3, 5-ht1E receptor (Homo sapiens, UniProt P28566); experiment: radioligand competition, CHO-K1 membranes; type: binding; details: read-out: 5-ht1E / pKi (converted)
T3 construct: gene HTR1E; full-length human recombinant receptor in CHO-K1 cells (Ogeda); crude membranes
T3 sequence (P28566 whole entry): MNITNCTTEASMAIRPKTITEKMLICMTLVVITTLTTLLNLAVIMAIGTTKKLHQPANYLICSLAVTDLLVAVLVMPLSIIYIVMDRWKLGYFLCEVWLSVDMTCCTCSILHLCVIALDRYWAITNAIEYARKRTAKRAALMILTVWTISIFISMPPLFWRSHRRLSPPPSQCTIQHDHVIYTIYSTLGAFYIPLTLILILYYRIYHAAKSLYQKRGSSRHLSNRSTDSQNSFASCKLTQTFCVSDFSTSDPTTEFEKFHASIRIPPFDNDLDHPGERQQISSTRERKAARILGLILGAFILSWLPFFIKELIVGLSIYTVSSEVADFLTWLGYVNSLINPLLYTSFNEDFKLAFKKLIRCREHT
From the text: radioligand competition, CHO-K1 membranes on 5-ht1E receptor

5-HT1F receptor [4] = target: T4, 5-HT1F receptor (Homo sapiens, UniProt P30939); experiment: biochemical; type: CHO-K1 membranes; design: radioligand competition binding on cell membranes, filtration and TopCount scintillation counting; details: radioligand displacement; for IC50: read-out: 5‐HT1F / pIC50 (converted); for Ki: read-out: 5‐HT1F / pKi (converted)
T4 construct: gene HTR1F; full-length human recombinant receptor in CHO-K1 cells (Ogeda)
T4 sequence (P30939 1-366): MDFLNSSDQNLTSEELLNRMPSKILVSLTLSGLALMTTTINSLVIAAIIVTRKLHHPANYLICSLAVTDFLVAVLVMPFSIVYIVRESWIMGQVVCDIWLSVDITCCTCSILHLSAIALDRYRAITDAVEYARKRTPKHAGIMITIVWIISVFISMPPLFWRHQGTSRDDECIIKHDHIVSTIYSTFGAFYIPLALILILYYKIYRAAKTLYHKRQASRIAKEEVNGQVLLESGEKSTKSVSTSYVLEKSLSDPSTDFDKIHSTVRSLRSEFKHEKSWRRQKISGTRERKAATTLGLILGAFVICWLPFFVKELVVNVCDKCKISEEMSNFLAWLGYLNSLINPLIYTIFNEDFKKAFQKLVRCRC
Experimental: Competition binding was performed in duplicate in the wells of a 96‐well plate containing binding buffer (optimized for each receptor), cell membrane extracts (approximately 20,000 cells distributed in the 96‐well plate), radiotracer, and test agonist. Non‐specific binding was determined by co‐incubation with 200‐fold excess of competitor. Cells were incubated and exposed to varying concentrations (1 pM to 10 μM) of a range of displacer agonists (see below). The samples were incubated in a final volume of 0.1 ml and then filtered over Unifilter plates (Perkin Elmer, Massachusetts, USA) pretreated for 2 hr to limit tracer non‐specific binding. Filters were washed five times with 0.5 ml of ice‐cold washing buffer (tris 50 mM pH 7.4) and 50 μl of Microscint 20 (Perkin Elmer) were added to each filter. The plates were incubated 15 min at room temperature on an orbital shaker and then counted with a TopCount™ (Perkin Elmer) for 1 min per well. […] Additionally, the reference values obtained were compared to historical values obtained from the same receptor and used to validate the experimental session. […] For the new assays developed in this study (i.e., 5‐ht1E receptor), the two independent pIC50 determined must be concordant with a 1 log unit interval for the assays to be validated. […]

5-HT1B receptor [5] = target: T5, 5-HT1B receptor (Homo sapiens, UniProt P28222); experiment: radioligand competition, CHO-K1 membranes; type: binding; details: read-out: 5-HT1B / pKi (converted)
T5 construct: gene HTR1B; full-length human recombinant receptor in CHO-K1 cells (Ogeda); crude membranes
T5 sequence (P28222 whole entry): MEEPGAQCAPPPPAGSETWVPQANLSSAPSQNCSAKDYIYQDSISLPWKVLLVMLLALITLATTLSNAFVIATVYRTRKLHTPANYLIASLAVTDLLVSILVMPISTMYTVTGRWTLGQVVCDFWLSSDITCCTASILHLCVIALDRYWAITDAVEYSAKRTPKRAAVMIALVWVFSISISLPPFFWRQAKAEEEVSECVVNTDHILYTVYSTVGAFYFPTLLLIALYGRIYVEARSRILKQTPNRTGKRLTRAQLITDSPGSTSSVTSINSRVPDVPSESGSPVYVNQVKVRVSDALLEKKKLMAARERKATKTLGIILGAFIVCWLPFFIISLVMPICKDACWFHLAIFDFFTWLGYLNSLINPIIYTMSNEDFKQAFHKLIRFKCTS
From the text: radioligand competition, CHO-K1 membranes on 5-HT1B receptor

5-HT1B receptor [6] = target: T5, 5-HT1B receptor; experiment: biochemical; type: CHO-K1 membranes; design: GTPγS agonist functional assay
From the text: (§1) Additionally, the reference values obtained were compared to historical values obtained from the same receptor and used to validate the experimental session. […] For the new assays developed in this study (i.e., 5‐ht1E receptor), the two independent pIC50 determined must be concordant with a 1 log unit interval for the assays to be validated.

5-HT1D receptor = target: T6, 5-HT1D receptor (Homo sapiens, UniProt P28221); experiment: biochemical; type: CHO-K1 membranes; design: GTPγS agonist functional assay
T6 construct: gene HTR1D; full-length human recombinant receptor in CHO-K1 cells (Ogeda); crude membranes
T6 sequence (P28221 whole entry): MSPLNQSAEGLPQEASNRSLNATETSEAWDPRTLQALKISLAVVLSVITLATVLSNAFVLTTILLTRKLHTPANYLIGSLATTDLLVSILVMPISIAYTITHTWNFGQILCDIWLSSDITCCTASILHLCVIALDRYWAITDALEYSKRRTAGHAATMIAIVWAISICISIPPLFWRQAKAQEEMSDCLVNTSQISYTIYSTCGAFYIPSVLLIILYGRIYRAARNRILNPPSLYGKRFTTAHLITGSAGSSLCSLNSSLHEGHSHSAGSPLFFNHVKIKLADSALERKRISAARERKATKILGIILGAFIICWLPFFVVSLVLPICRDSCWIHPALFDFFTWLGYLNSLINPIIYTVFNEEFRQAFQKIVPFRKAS
From the text: as §1

5-HT1F receptor [7] = target: T4, 5-HT1F receptor; experiment: biochemical; type: CHO-K1 membranes; design: GTPγS agonist functional assay; details: GTPγS
From the text: as §1

5-ht1E receptor [8] = target: T3, 5-ht1E receptor; experiment: biochemical; type: CHO-K1 membranes; design: GTPγS agonist functional assay; details: GTPγS
From the text: as §1

[9] = IP, read-out: 5‐HT2B / IP (converted)
[10] = GTPγS, read-out: 5‐HT1B / GTPγS (converted)
[11] = GTPγS, read-out: 5‐HT1D / GTPγS (converted)

Structure (SMILES) | EC50 (5-HT2B receptor [1]; [9]) | Ki (5-HT2B receptor [2]) | Ki (5-HT2A receptor) | Ki (5-ht1E receptor [3]) | IC50 (5-HT1F receptor [4]) | Ki (5-HT1B receptor [5]) | EC50 (5-HT1B receptor [6]; [10]) | EC50 (5-HT1D receptor; [11]) | EC50 (5-HT1F receptor [7]) | EC50 (5-ht1E receptor [8]) | EC50 (5-HT2B receptor [1]) | EC50 (5-HT1B receptor [6]) | EC50 (5-HT1D receptor) | 5-HT2B / pKi (5-HT2B receptor [2]; radioligand listed in supplement Table S1, unreliable (pIC50 printed as <[…])) | Ki (5-HT1F receptor [4])
CN1CCC[C@@H]1Cc1c[nH]c2ccc(CCS(=O)(=O)c3ccccc3)cc12 [Eletriptan hydrobromide] | 155 nM | 447 nM | 1150 nM | 61.7 nM | 44.7 nM | 0.525 nM | 8.13 nM | 0.912 nM | 132 nM | 126 nM | – | – | – | – | –
N#Cc1ccc(N2CCN(C(=O)COc3ccc4[nH]cc(CCN)c4c3)CC2)cc1 [Donitriptan hydrochloride] | – | 813 nM | 447 nM | 1700 nM | – | 0.17 nM | – | – | – | > 10000 nM | 24.5 nM | 0.302 nM | 0.309 nM | – | –
CNS(=O)(=O)CCc1ccc2[nH]cc(C3CCN(C)CC3)c2c1 [Naratriptan hydrochloride] | > 10000 nM | – | – | 7.41 nM | 4.68 nM | 0.603 nM | 1.38 nM | – | 8.91 nM | 6.76 nM | – | – | – | 5.08 -log M | –
CN(C)[C@@H]1CCc2[nH]c3ccc(NC(=O)c4ccc(F)cc4)cc3c2C1 [LY344864 hydrochloride] | > 10000 nM | – | – | – | 4.17 nM | – | – | 117 nM | 14.1 nM | – | – | – | – | – | 1.58 nM
CNS(=O)(=O)Cc1ccc2[nH]cc(CCCN3CCN(c4ncncc4OC)CC3)c2c1 [Avitriptan fumarate] | 389 nM | 1150 nM | 2340 nM | 3550 nM | 204 nM | 1.58 nM | 2.09 nM | 0.537 nM | 891 nM | > 10000 nM | – | – | – | – | –
CNC1CCc2[nH]c3ccc(C(N)=O)cc3c2C1 (racemic) [Frovatriptan racemate] | – | – | – | – | 316 nM | – | – | – | 447 nM | > 10000 nM | – | – | – | – | 120 nM
